Data: patent US20030139391A1 (priority 2000, published 2003)

What was measured:
patients = experiment: Side effects and dropout in earlier studies with shorter titration; format: in vivo, human; details: for Abdominal Pain: % / Abdominal Pain: number / Diarrhea: % / Diarrhea: number / Dyspepsia: % / Dyspepsia: number / Gastro-intestinal System Disorders, Adverse events: % / Gastro-intestinal System Disorders, Adverse events: number / Nausea: % / Nausea: number / Vomiting: % / Vomiting: number: shorter titration
Text: In contrast with earlier studies with a shorter titration of the drug the incidence of side effects, particularly gastro-intestinal system disorders, were […]. A example of this is shown below in Table 11.

[1] = in humans; cited from earlier work

COc1ccc2c3c1O[C@H]1C[C@@H](O)C=C[C@@]31CCN(C)C2 [GAL, galantamine]
Abdominal Pain: % (patients; 18 mg): 2.3% | Abdominal Pain: number (patients; 18 mg): 2 | Diarrhea: % (patients; 18 mg): 2.3% | Diarrhea: number (patients; 18 mg): 2 | Dyspepsia: % (patients; 18 mg): 5.7% | Dyspepsia: number (patients; 18 mg): 5 | Gastro-intestinal System Disorders, Adverse events: % (patients; 18 mg): 31.8% | Gastro-intestinal System Disorders, Adverse events: number (patients; 18 mg): 28 | Nausea: % (patients; 18 mg): 17.0% | Nausea: number (patients; 18 mg): 15 | Vomiting: % (patients; 18 mg): 17.0% | Vomiting: number (patients; 18 mg): 15 | Abdominal Pain: % (patients; 24 mg): 7.4% | Abdominal Pain: number (patients; 24 mg): 36 | Diarrhea: % (patients; 24 mg): 9.6% | Diarrhea: number (patients; 24 mg): 47 | Dyspepsia: % (patients; 24 mg): 4.3% | Dyspepsia: number (patients; 24 mg): 21 | Gastro-intestinal System Disorders, Adverse events: % (patients; 24 mg): 49.0% | Gastro-intestinal System Disorders, Adverse events: number (patients; 24 mg): 239 | Nausea: % (patients; 24 mg): 35.2% | Nausea: number (patients; 24 mg): 172 | Vomiting: % (patients; 24 mg): 19.1% | Vomiting: number (patients; 24 mg): 93 | Abdominal Pain: % (patients; 32 mg): 8.4% | Abdominal Pain: number (patients; 32 mg): 59 | Diarrhea: % (patients; 32 mg): 12.9% | Diarrhea: number (patients; 32 mg): 91 | Dyspepsia: % (patients; 32 mg): 4.5% | Dyspepsia: number (patients; 32 mg): 32 | Gastro-intestinal System Disorders, Adverse events: % (patients; 32 mg): 55.8% | Gastro-intestinal System Disorders, Adverse events: number (patients; 32 mg): 393 | Nausea: % (patients; 32 mg): 37.6% | Nausea: number (patients; 32 mg): 265 | Vomiting: % (patients; 32 mg): 18.6% | Vomiting: number (patients; 32 mg): 131 | dropout rate due to cholinergic side effects (patients; 36 mg daily in three doses, two week titration): 50% | Abdominal Pain: % (patients; 36 mg): 1.9% | Abdominal Pain: number (patients; 36 mg): 1 | Diarrhea: % (patients; 36 mg): 3.7% | Diarrhea: number (patients; 36 mg): 2 | Dyspepsia: % (patients; 36 mg): 0 (0%) | Dyspepsia: number (patients; 36 mg): 0 (0%) | Gastro-intestinal System Disorders, Adverse events: % (patients; 36 mg): 50.0% | Gastro-intestinal System Disorders, Adverse events: number (patients; 36 mg): 27 | Nausea: % (patients; 36 mg): 37.0% | Nausea: number (patients; 36 mg): 20 | Vomiting: % (patients; 36 mg): 16.7% | Vomiting: number (patients; 36 mg): 9 | Abdominal Pain: % (patients; flexable dose): 1.9% | Abdominal Pain: number (patients; flexable dose): 18 | Diarrhea: % (patients; flexable dose): 14.6% | Diarrhea: number (patients; flexable dose): 38 | Dyspepsia: % (patients; flexable dose): 3.4% | Dyspepsia: number (patients; flexable dose): 9 | Gastro-intestinal System Disorders, Adverse events: % (patients; flexable dose): 51.0% | Gastro-intestinal System Disorders, Adverse events: number (patients; flexable dose): 133 | Nausea: % (patients; flexable dose): 32.2% | Nausea: number (patients; flexable dose): 84 | Vomiting: % (patients; flexable dose): 14.6% | Vomiting: number (patients; flexable dose): 38 | passing the blood-brain barrier [1]: capable of passing the blood-brain barrier
